Assay: Half life in mouse plasma
Assay type: ADME, cell-free

Structure (SMILES): C[C@H](CC#CC(C)(C)O)[C@H]1CC[C@@H]2/C(=C/C=C3C[C@@H](O)C[C@H](O)C3)CCC[C@@]21C [INECALCITOL]
- half-life: 18.3 min

— ChEMBL document CHEMBL5230105, “Vitamin D and its analogs as anticancer and anti-inflammatory agents” (Eur J Med Chem, 2020)
